# Data published in patent publication US8841321B2, “Quinoline derivatives as antibacterial agents” (Janssen Pharmaceutica NV, priority 2005, dated 2014).
# Experiments:
# Assay in all cases: Microtitre plate assay, IC90 determination
# Assay type in all cases: cell-based
# [1] = test system: SPN 6305 (Streptococcus pneumoniae (ATCC6305)); details: for IC90 (μg/ml) SPN 6305: Streptococcus pneumoniae (ATCC6305); for IC90: Streptococcus pneumoniae, ATCC6305, Streptococcus pneumoniae (ATCC6305), read-out: IC90 (μg/ml) SPN 6305
# In short: (§1)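 Growth-inhibition endpoint: resazurin added 3 h after inoculation, plates incubated overnight, fluorescence at 530/590 nm after 24 h at 37 °C. Inocula of roughly 10–60 CFU per well in Mueller-Hinton medium; compounds titrated five-fold. IC90 reported as μg/ml.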
# [2] = test system: STA 29213 (Staphylococcus aureus (ATCC29213)); details: for IC90 (μg/ml) STA 29213: Staphylococcus aureus (ATCC29213); for IC90: Staphylococcus aureus, ATCC29213, Staphylococcus aureus (ATCC29213), read-out: IC90 (μg/ml) STA 29213
# In short: as §1
# [3] = test system: EFA 29212 (Enterococcus faecalis (ATCC29212)); details: for IC90 (μg/ml) EFA 29212: Enterococcus faecalis (ATCC29212); for IC90: Enterococcus faecalis, ATCC29212, Enterococcus faecalis (ATCC29212), read-out: IC90 (μg/ml) EFA 29212
# [4] = test system: PAE 27853 (Pseudomonas aeruginosa (ATCC27853)); details: for IC90 (μg/ml) PAE 27853: Pseudomonas aeruginosa (ATCC27853); for IC90: Pseudomonas aeruginosa, ATCC27853, Pseudomonas aeruginosa (ATCC27853), read-out: IC90 (μg/ml) PAE 27853
# [5] = test system: SPY 8668 (Streptococcus pyogens (ATCC8668)); details: for IC90 (μg/ml) SPY 8668: Streptococcus pyogens (ATCC8668); for IC90: Streptococcus, ATCC8668, Streptococcus pyogens (ATCC8668), read-out: IC90 (μg/ml) SPY 8668
# [6] = test system: STA RMETH (methicilline resistant Staphylococcus aureus (MRSA), a clinical isolate from the University of Antwerp); details: for IC90: Staphylococcus aureus, MRSA, read-out: IC90 (μg/ml) STA RMETH
Compound,IC90 (μg/ml) SPN 6305 [1],IC90 (μg/ml) STA 29213 [2],IC90 (μg/ml) EFA 29212 [3],IC90 (μg/ml) PAE 27853 [4],IC90 (μg/ml) SPY 8668 [5],IC90 (μg/ml) STA RMETH [6],IC90 [2],IC90 [3],IC90 [4],IC90 [5],IC90 [6],IC90 [1]
COc1nc2ccc(Br)cc2cc1C(c1ccccc1)C(O)(CCCCN(C)C)c1ccc2cc(Br)ccc2c1 (stereo not drawn) [Compound 8],10.5 µg/mL,2.4 µg/mL,2.1 µg/mL,5.3 µg/mL,10.5 µg/mL,2.6 µg/mL,,,,,,
"COc1nc2ccc(Br)cc2cc1C(c1ccccc1)C(O)(CCCCN1CCN(C)CC1)CCc1ccccc1 (single isomer, unassigned) [Compound 137]",1.95 µg/mL,1.95 µg/mL,9.77 µg/mL,9.77 µg/mL,1.95 µg/mL,12.3 µg/mL,,,,,,
"COc1nc2ccc(Br)cc2cc1C(c1ccccc1)C(O)(CCCCN1CCN(C)CC1)CCc1ccc(C)cc1 (single isomer, unassigned) [Compound 141]",1.99 µg/mL,1.99 µg/mL,4.46 µg/mL,4.46 µg/mL,4.46 µg/mL,14.12 µg/mL,,,,,,
CSc1nc2ccc(Br)cc2cc1C(c1ccccc1)C(O)(CCCCN(C)C)c1ccccc1 (stereo not drawn) [Compound 1],1.74 µg/mL,1.74 µg/mL,6.92 µg/mL,1.95 µg/mL,1.74 µg/mL,12.3 µg/mL,,,,,,
COc1nc2ccc(Br)cc2cc1C(c1ccccc1)C(O)(CCCCN1CCNCC1)c1ccc2ccccc2c1 (stereo not drawn) [Compound 107],0.39 µg/mL,,,,,,1.98 µg/mL,1.98 µg/mL,1.98 µg/mL,1.98 µg/mL,,
COc1nc2ccc(-c3ccccc3)cc2cc1C(c1ccccc1)C(O)(CCCCN(C)C)c1ccc2ccccc2c1 (stereo not drawn) [Compound 40],1.8 µg/mL,,1.8 µg/mL,1.8 µg/mL,1.8 µg/mL,,7.3 µg/mL,,,,5.2 µg/mL,
CNCCCCC(O)(c1ccc2ccccc2c1)C(c1ccccc1)c1cc2cc(Br)ccc2nc1OC (racemic) [Compound 74],0.9 µg/mL,11.36 µg/mL,9.03 µg/mL,10.13 µg/mL,9.03 µg/mL,,,,,,,
"COc1nc2ccc(Br)cc2cc1C(c1ccccc1)C(O)(CCCCN(C)C(C)C)c1ccccc1 (single isomer, unassigned) [Compound 89]",2.24 µg/mL,11.2 µg/mL,11.2 µg/mL,11.2 µg/mL,8.9 µg/mL,,,,,,,
CNCCCCC(O)(CCc1ccccc1)C(c1ccccc1)c1cc2cc(Br)ccc2nc1OC (stereo not drawn) [Compound 71],1.73 µg/mL,1.73 µg/mL,8.68 µg/mL,8.68 µg/mL,3.88 µg/mL,10.92 µg/mL,,,,,,
CNCCCC(O)(c1ccc(F)cc1)C(c1ccccc1)c1cc2cc(Br)ccc2nc1OC (stereo not drawn) [Compound 69],,1.7 µg/mL,,,6.59 µg/mL,,,9.3 µg/mL,7.39 µg/mL,,,1.65 µg/mL
COc1nc2c(C)c(Br)ccc2cc1C(c1ccccc1)C(O)(CCCCN(C)C)c1ccc2ccccc2c1 (racemic) [Compound 81],4.75 µg/mL,9.47 µg/mL,1.89 µg/mL,9.47 µg/mL,1.89 µg/mL,,,,,,,
COc1nc2cccc(Br)c2cc1C(c1ccccc1)C(O)(CCCCN(C)C)c1ccc2ccccc2c1 (stereo not drawn) [Compound 29],9.3 µg/mL,,,,,2.3 µg/mL,1.9 µg/mL,46.3 µg/mL,20.7 µg/mL,20.7 µg/mL,,
COc1nc2cc(Br)ccc2cc1C(c1ccccc1)C(O)(CCCCN(C)C)c1ccc2ccccc2c1 (stereo not drawn) [Compound 32],1.9 µg/mL,1.9 µg/mL,1.9 µg/mL,1.9 µg/mL,1.9 µg/mL,,,,,,11.6 µg/mL,
COc1nc2ccc(Br)cc2cc1C(c1ccccc1)C(O)(CCCCN1CCC(C)CC1)c1ccc2ccccc2c1 (racemic) [Compound 102],1.8 µg/mL,10.11 µg/mL,10.11 µg/mL,2.02 µg/mL,2.02 µg/mL,,,,,,,
CNCCCCC(O)(CCc1ccccc1)C(c1ccccc1)c1cc2cc(Br)ccc2nc1OC (stereo not drawn) [Compound 70],0.35 µg/mL,,2.18 µg/mL,1.73 µg/mL,1.73 µg/mL,,1.73 µg/mL,,,,10.9 µg/mL,
"COc1nc2ccc(Br)cc2cc1C(c1ccccc1)C(O)(CCCCN(C)C)CCCc1ccccc1 (single isomer, unassigned) [Compound 144]",2.29 µg/mL,9.12 µg/mL,1.82 µg/mL,1.82 µg/mL,1.82 µg/mL,,,,,,,
COc1ccc2cc(C(O)(CCCCN(C)C)C(c3ccccc3)c3cc4ccccc4nc3OC)ccc2c1 (stereo not drawn) [Compound 35],,,,8.5 µg/mL,3.8 µg/mL,,2.1 µg/mL,8.5 µg/mL,,,10.7 µg/mL,1.7 µg/mL
"COc1nc2ccc(Br)cc2cc1C(c1ccccc1)C(O)(CCCCN1CCN(C)CC1)CCc1ccccc1 (single isomer, unassigned) [Compound 138]",2.19 µg/mL,2.45 µg/mL,1.74 µg/mL,2.19 µg/mL,0.87 µg/mL,12.3 µg/mL,,,,,,
COc1nc2ccc(Br)cc2cc1C(c1ccccc1)C(O)(CCCCCN(C)C)c1ccc2ccccc2c1 (stereo not drawn) [Compound 59],0.84 µg/mL,0.8 µg/mL,,,,,,1.89 µg/mL,1.89 µg/mL,2.12 µg/mL,,
"COc1nc2ccccc2cc1C(c1cccc(Br)c1)C(O)(CCCCN(C)C)c1ccc2ccccc2c1 (single isomer, unassigned) [Compound 159]",0.41 µg/mL,1.85 µg/mL,1.85 µg/mL,1.85 µg/mL,1.47 µg/mL,,,,,,,
COc1nc2ccccc2cc1C(c1ccc(Br)cc1)C(O)(CCCCN(C)C)c1ccc2ccccc2c1 (stereo not drawn) [Compound 64],1.85 µg/mL,1.85 µg/mL,,,,,,1.85 µg/mL,0.46 µg/mL,1.85 µg/mL,,
"COc1nc2ccc(Br)cc2cc1C(c1ccc(Cl)cc1)C(O)(CCCCN1CCCCC1)c1ccccc1 (single isomer, unassigned) [Compound 170]",9.64 µg/mL,21.57 µg/mL,9.64 µg/mL,9.64 µg/mL,9.64 µg/mL,,,,,,,
"COc1nc2ccc(Br)cc2cc1C(c1ccccc1)C(O)(CCCCN1CCCCC1)CCC(C)C (single isomer, unassigned) [Compound 124]",2.26 µg/mL,1.79 µg/mL,9 µg/mL,3.58 µg/mL,9 µg/mL,,,,,,,
COc1nc2ccc(Br)cc2cc1C(c1ccccc1)C(O)(CCCCN1CCNCC1)c1ccc2ccccc2c1 (stereo not drawn) [Compound 106],1.98 µg/mL,1.98 µg/mL,1.98 µg/mL,1.98 µg/mL,1.98 µg/mL,,,,,,,
"COc1ccc(C(c2cc3cc(Br)ccc3nc2OC)C(O)(CCCCN(C)C)c2ccc3ccccc3c2)cc1 (single isomer, unassigned) [Compound 158]",1.22 µg/mL,0.4 µg/mL,1.94 µg/mL,0.87 µg/mL,0.87 µg/mL,,,,,,,
"COc1nc2ccc(Br)cc2cc1C(c1ccccc1)C(O)(CCCCN(C)C)CCCc1ccccc1 (single isomer, unassigned) [Compound 145]",2.29 µg/mL,5.76 µg/mL,9.12 µg/mL,9.12 µg/mL,5.13 µg/mL,,,,,,,
